What was measured:
TRKA kinase = TRKA kinase (Homo sapiens (Human), UniProt P04629); assay: Assay of small molecular compounds for inhibiting the activity of TRKA kinase (LANCE TR-FRET); assay type: biochemical
How it was run: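 LANCE TR-FRET with ULight-TK peptide; compounds pre-incubated 5 min with TRKA (2× solution 2 nM), then substrate/ATP added (4× mix: 400 nM peptide, 40 μM ATP). Reaction 60 min at room temperature in dark, 1% DMSO final; stopped, detection developed 60 min, signal read.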

MER kinase = MER kinase (Homo sapiens (Human), UniProt Q12866); assay: Assay of small molecular compounds for inhibiting the activity of MER kinase (LANCE TR-FRET); assay type: biochemical
How it was run: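 MER kinase preincubated 5 min at RT with compound (11 points, 0.042-2500 nM final), then ULight-poly GT and ATP added (4× stocks 200 nM and 20 μM) for 60 min at RT, 1% DMSO. Phosphorylation detected by LANCE TR-FRET; IC50 from % inhibition versus controls.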

Ba/F3 LMNA-NTRK1 cells = assay: Assay for inhibiting the proliferation of Ba/F3 LMNA-NTRK1 cells (CCK-8); assay type: cell-based; conditions: Mus musculus, BaF3
How it was run: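 Cells were seeded and cultured overnight, then treated with graded compound concentrations (final DMSO 0.25%) for 72 h. CCK-8 was added for 1–2 h at 37 °C and OD450 read. Survival was normalised to untreated and cell-free blank wells, and IC50 was fitted.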

Chain of TRKA kinase (P04629 33-796): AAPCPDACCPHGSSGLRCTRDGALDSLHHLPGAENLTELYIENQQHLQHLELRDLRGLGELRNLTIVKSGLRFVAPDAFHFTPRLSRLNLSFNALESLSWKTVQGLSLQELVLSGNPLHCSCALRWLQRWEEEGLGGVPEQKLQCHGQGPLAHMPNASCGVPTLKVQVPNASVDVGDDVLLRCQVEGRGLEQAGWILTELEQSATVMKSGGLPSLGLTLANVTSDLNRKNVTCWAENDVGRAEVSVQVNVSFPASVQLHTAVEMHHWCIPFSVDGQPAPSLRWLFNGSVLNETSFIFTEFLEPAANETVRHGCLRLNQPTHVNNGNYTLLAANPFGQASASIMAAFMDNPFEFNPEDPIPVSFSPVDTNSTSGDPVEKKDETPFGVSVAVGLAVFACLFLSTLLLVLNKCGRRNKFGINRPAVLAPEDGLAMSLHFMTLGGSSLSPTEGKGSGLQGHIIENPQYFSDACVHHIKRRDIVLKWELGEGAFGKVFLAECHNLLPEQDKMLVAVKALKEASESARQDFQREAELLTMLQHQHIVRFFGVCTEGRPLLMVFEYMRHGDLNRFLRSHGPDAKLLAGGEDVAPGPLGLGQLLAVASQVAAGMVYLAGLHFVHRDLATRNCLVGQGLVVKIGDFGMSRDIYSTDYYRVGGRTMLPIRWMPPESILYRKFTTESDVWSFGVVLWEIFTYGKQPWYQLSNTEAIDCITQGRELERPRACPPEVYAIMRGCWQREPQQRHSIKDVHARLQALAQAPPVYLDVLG
Chain of MER kinase (Q12866 21-999): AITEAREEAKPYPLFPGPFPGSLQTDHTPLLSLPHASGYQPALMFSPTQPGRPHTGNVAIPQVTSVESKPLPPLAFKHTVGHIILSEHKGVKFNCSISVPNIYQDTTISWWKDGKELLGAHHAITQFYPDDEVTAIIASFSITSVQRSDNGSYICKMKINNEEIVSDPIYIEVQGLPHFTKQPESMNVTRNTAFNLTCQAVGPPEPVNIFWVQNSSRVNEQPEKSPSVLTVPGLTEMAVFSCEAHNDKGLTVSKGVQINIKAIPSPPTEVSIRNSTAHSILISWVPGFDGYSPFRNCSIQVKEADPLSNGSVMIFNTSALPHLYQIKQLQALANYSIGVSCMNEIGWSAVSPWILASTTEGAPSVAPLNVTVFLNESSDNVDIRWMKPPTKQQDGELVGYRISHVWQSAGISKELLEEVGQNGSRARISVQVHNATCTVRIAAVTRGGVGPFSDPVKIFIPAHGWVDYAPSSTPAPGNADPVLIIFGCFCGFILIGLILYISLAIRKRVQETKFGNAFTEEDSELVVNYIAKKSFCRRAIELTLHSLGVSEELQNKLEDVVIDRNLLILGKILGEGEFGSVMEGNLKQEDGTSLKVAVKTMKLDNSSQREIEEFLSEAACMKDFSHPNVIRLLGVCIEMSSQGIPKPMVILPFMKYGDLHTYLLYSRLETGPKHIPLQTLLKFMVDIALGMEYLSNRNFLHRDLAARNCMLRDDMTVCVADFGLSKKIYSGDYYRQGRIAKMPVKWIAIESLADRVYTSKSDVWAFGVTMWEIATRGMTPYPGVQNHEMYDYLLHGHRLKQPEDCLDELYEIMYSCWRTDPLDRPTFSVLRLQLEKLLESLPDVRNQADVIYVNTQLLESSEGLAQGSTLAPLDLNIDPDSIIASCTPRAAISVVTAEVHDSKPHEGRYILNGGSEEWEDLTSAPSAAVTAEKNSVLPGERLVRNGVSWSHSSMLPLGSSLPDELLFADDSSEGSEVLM

IC50 (TRKA kinase)	IC50 (MER kinase)	IC50 (Ba/F3 LMNA-NTRK1 cells)	SMILES
50 to 500 nM	≤ 50 nM	< 50 nM	COCCOc1cc2nccc(Oc3ccc(NC(=O)c4cn(C(C)C)c(=O)n(-c5ccc(F)cc5)c4=O)cc3F)c2c2c1OCCO2 [Example 43, N-(3-fluoro-4-((5-(2-methoxyethoxy)-2,3-dihydro-[1,4]dioxino[2,3-f]quinolin-10-yl)oxy)phenyl)-3-(4-fluorophenyl)-1-isopropyl-2,4-dioxo-1,2,3,4-tetrahydropyrimidine-5-carboxamide]
< 50 nM	≤ 50 nM	< 50 nM	CCn1cc(C(=O)Nc2ccc(Oc3ccnc4cc(OCCOC)c5c(c34)OCCO5)c(F)c2)c(=O)n(-c2ccc(F)cc2)c1=O [Example 44, N-(3-fluoro-4-((5-(2-methoxyethoxy)-2,3-dihydro-[1,4]dioxino[2,3-f]quinolin-10-yl)oxy)phenyl)-3-(4-fluorophenyl)-1-ethyl-2,4-dioxo-1,2,3,4-tetrahydropyrimidine-5-carboxamide]
50 to 500 nM	≤ 50 nM	< 50 nM	COCCn1cc(C(=O)Nc2ccc(Oc3ccnc4cc(OC)c5c(c34)OCCO5)c(F)c2)c(=O)n(-c2ccc(F)cc2)c1=O [Example 46, N-(3-fluoro-4-((5-methoxy-2,3-dihydro-[1,4]dioxino[2,3-f]quinolin-10-yl)oxy)phenyl)-3-(4-fluorophenyl)-1-(2-methoxyethyl)-2,4-dioxo-1,2,3,4-tetrahydropyrimidine-5-carboxamide]
< 50 nM	≤ 50 nM	< 50 nM	CCOc1ccn(-c2ccc(F)cc2)c(=O)c1C(=O)Nc1ccc(Oc2ccnc3cc(OCCCN4CCN(C)CC4)c4c(c23)OCCO4)c(F)c1 [Example 49, N-(3-fluoro-4-((5-(3-(4-methylpiperazin-1-yl)propoxy)-2,3-dihydro-[1,4]dioxino[2,3-f]quinolin-10-yl)oxy)phenyl)-1-(4-fluorophenyl)-4-ethoxy-2-oxo-1,2-dihydropyridine-3-carboxamide]
< 50 nM	≤ 50 nM	< 50 nM	CCOc1ccn(-c2ccc(F)cc2)c(=O)c1C(=O)Nc1ccc(Oc2ccnc3cc(OCCCN4CCN(C(C)=O)CC4)c4c(c23)OCCO4)c(F)c1 [Example 50, N-(4-((5-(3-(4-acetyl-piperazin-1-yl)propoxy)-2,3-dihydro-[1,4]dioxino[2,3-f]quinolin-10-yl)oxy)-3-fluorophenyl)-4-ethoxy-1-(4-fluorophenyl)-2-oxo-1,2-dihydropyridine-3-carboxamide]
< 50 nM	≤ 50 nM	< 50 nM	CCOc1ccn(-c2ccc(F)cc2)c(=O)c1C(=O)Nc1ccc(Oc2ccnc3cc(OCCCN4CCS(=O)(=O)CC4)c4c(c23)OCCO4)c(F)c1 [Example 51, N-(4-((5-(3-(1,1-dioxidothiomorpholino)propoxy)-2,3-dihydro-[1,4]dioxino[2,3-f]quinolin-1 0-yl)oxy)-3-fluorophenyl)-4-ethoxy-1-(4-fluorophenyl)-2-oxo-1,2-dihydropyridine-3-carboxamide]
< 50 nM	≤ 50 nM	< 50 nM	CCOc1ccn(-c2ccc(F)cc2)c(=O)c1C(=O)Nc1ccc(Oc2ccnc3cc(OCCCN4CCCC4)c4c(c23)OCCO4)c(F)c1 [Example 52, N-(4-((5-(3-(pyrrolidin-1-yl)propoxy)-2,3-dihydro-[1,4]dioxino[2,3-f]quinolin-10-yl)oxy)-3-fluorophenyl)-4-ethoxy-1-(4-fluorophenyl)-2-oxo-1,2-dihydropyridine-3-carboxamide]
< 50 nM	≤ 50 nM	< 50 nM	CCOc1ccn(-c2ccc(F)cc2)c(=O)c1C(=O)Nc1ccc(Oc2ccnc3cc(OCCO)c4c(c23)OCCO4)c(F)c1 [Example 53, N-(4-((5-(2-hydroxyethoxy)-2,3-dihydro-[1,4]dioxino[2,3-f]quinolin-10-yl)oxy)-3-fluorophenyl)-4-ethoxy-1-(4-fluorophenyl)-2-oxo-1,2-dihydropyridine-3-carboxamide]
< 50 nM	≤ 50 nM	< 50 nM	CCOc1ccn(-c2ccc(F)cc2)c(=O)c1C(=O)Nc1ccc(Oc2ccnc3cc(OCCCO)c4c(c23)OCCO4)c(F)c1 [Example 54, N-(4-((5-(3-hydroxypropoxy)-2,3-dihydro-[1,4]dioxino[2,3-f]quinolin-10-yl)oxy)-3-fluorophenyl)-4-ethoxy-1-(4-fluorophenyl)-2-oxo-1,2-dihydropyridine-3-carboxamide]
< 50 nM	≤ 50 nM	< 50 nM	CCOc1ccn(-c2ccc(F)cc2)c(=O)c1C(=O)Nc1ccc(Oc2ccnc3cc(OCCCOC)c4c(c23)OCCO4)c(F)c1 [Example 55, N-(4-((5-(3-methoxypropoxy)-2,3-dihydro-[1,4]dioxino[2,3-f]quinolin-10-yl)oxy)-3-fluorophenyl)-4-ethoxy-1-(4-fluorophenyl)-2-oxo-1,2-dihydropyridine-3-carboxamide]
< 50 nM	≤ 50 nM	< 50 nM	CCOc1ccn(-c2ccc(F)cc2)c(=O)c1C(=O)Nc1ccc(Oc2ccnc3cc(OCC#N)c4c(c23)OCCO4)c(F)c1 [Example 56, N-(4-((5-(cyanomethoxy)-2,3-dihydro-[1,4]dioxino[2,3-f]quinolin-10-yl)oxy)-3-fluorophenyl)-4-ethoxy-1-(4-fluorophenyl)-2-oxo-1,2-dihydropyridine-3-carboxamide]
< 50 nM	≤ 50 nM	< 50 nM	CCOc1ccn(-c2ccc(F)cc2)c(=O)c1C(=O)Nc1ccc(Oc2ccnc3cc(OCCCC#N)c4c(c23)OCCO4)c(F)c1 [Example 57, N-(4-((5-(3-cyanopropoxy)-2,3-dihydro-[1,4]dioxino[2,3-f]quinolin-10-yl)oxy)-3-fluorophenyl)-4-ethoxy-1-(4-fluorophenyl)-2-oxo-1,2-dihydropyridine-3-carboxamide]
< 50 nM	≤ 50 nM	< 50 nM	CCOc1cc2nccc(Oc3ccc(NC(=O)c4c(OCC)ccn(-c5ccc(F)cc5)c4=O)cc3F)c2c2c1OCCO2 [Example 62, N-(4-((5-ethoxy-2,3-dihydro-[1,4]dioxino[2,3-f]quinolin-10-yl)oxy)-3-fluorophenyl)-4-ethoxy-1-(4-fluorophenyl)-2-oxo-1,2-dihydropyridine-3-carboxamide]
< 50 nM	≤ 50 nM	50 to 200 nM	CCOc1ccn(-c2ccc(F)cc2)c(=O)c1C(=O)Nc1ccc(Oc2ccnc3cc(OC4COC4)c4c(c23)OCCO4)c(F)c1 [Example 64, N-(4-((5-((oxetan-3-yl)oxy)-2,3-dihydro-[1,4]dioxino[2,3-f]quinolin-10-yl)oxy)-3-fluorophenyl)-4-ethoxy-1-(4-fluorophenyl)-2-oxo-1,2-dihydropyridine-3-carboxamide]
< 50 nM	≤ 50 nM	50 to 200 nM	CCOc1ccn(-c2ccc(F)cc2)c(=O)c1C(=O)Nc1ccc(Oc2ccnc3cc(OC4CCOC4)c4c(c23)OCCO4)c(F)c1 (centres unmarked) [Example 65, N-(4-((5-((tetrahydrofuran-3-yl)oxy)-2,3-dihydro-[1,4]dioxino[2,3-f]quinolin-10-yl)oxy)-3-fluorophenyl)-4-ethoxy-1-(4-fluorophenyl)-2-oxo-1,2-dihydropyridine-3-carboxamide]
< 50 nM	≤ 50 nM	50 to 200 nM	CCOc1ccn(-c2ccc(F)cc2)c(=O)c1C(=O)Nc1ccc(Oc2ccnc3cc(OC4CCOCC4)c4c(c23)OCCO4)c(F)c1 [Example 66, N-(4-((5-((tetrahydropyran-4-yl)oxy)-2,3-dihydro-[1,4]dioxino[2,3-f]quinolin-10-yl)oxy)-3-fluorophenyl)-4-ethoxy-1-(4-fluorophenyl)-2-oxo-1,2-dihydropyridine-3-carboxamide]
< 50 nM	≤ 50 nM	< 50 nM	CCOc1ccn(-c2ccc(F)cc2)c(=O)c1C(=O)Nc1ccc(Oc2ccnc3cc(OCCCN4CCC(C)(C)CC4)c4c(c23)OCCO4)c(F)c1 [Example 67, N-(4-((5-(3-(4,4-dimethylpiperidin-1-yl)propoxy)-2,3-dihydro-[1,4]dioxino[2,3-f]quinolin-10-yl)oxy)-3-fluorophenyl)-4-ethoxy-1-(4-fluorophenyl)-2-oxo-1,2-dihydropyridine-3-carboxamide]
< 50 nM	≤ 50 nM	200 to 1000 nM	CCOc1ccn(-c2ccc(F)cc2)c(=O)c1C(=O)Nc1ccc(Oc2ccnc3cc(OCCCN4CCC(C)(N)CC4)c4c(c23)OCCO4)c(F)c1 [Example 68, N-(4-((5-(3-(4-amino-4-methylpiperidin-1-yl)propoxy)-2,3-dihydro-[1,4]dioxino[2,3-f]quinolin-10-yl)oxy)-3-fluorophenyl)-4-ethoxy-1-(4-fluorophenyl)-2-oxo-1,2-dihydropyridine-3-carboxamide]
50 to 500 nM	≤ 50 nM	–	CC(C)Oc1cc2nccc(Oc3ccc(NC(=O)c4cn(C)c(=O)n(-c5ccc(F)cc5)c4=O)cc3F)c2c2c1OCCO2 [Example 88, N-(3-fluoro-4-((5-isopropoxy-2,3-dihydro-[1,4]dioxino[2,3-f]quinolin-10-yl)oxy)phenyl)-3-(4-fluorophenyl)-1-methyl-2,4-dioxo-1,2,3,4-tetrahydropyrimidine-5-carboxamide]

Reference: patent publication US12202835B2, “Substituted aromatic ring-linked dioxinoquinazolines and dioxinoquinolines as kinase inhibitors” (BEIJING SCITECH-MQ PHARMACEUTICALS LIMITED, priority 2018, dated 2025)
